How the values were obtained:
[1] = tested on: HIV-1 variant Y188C; experiment: Cytopathic cell killing assay, cross-resistance profile, infected MT-4 cells; assay type: cell-based; details: isolate Y188C
Procedure, shortened: (§1)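 Cells seeded at 5 x 10^3 per well and infected with pre-titered HIV at MOI giving full killing by day 6 (e.g., 0.01-0.05). Compounds tested in triplicate serial half-log dilutions. Viability measured after six days at 37°C by XTT formazan at 450 nm; TI50 = fold-difference between EC50 and IC50.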

[2] = tested on: HIV-1 variant K103N; experiment: as above; assay type: cell-based; details: isolate K103N
Procedure, shortened: as §1

[3] = tested on: HIV-1 variant L100I; experiment: as above; assay type: cell-based; details: isolate L1001
Procedure, shortened: as §1

[4] = tested on: HIV-1 variant L74V; experiment: as above; assay type: cell-based
Procedure, shortened: as §1

[5] = tested on: HIV-1 variant A98G; experiment: as above; assay type: cell-based; details: isolate A98G
Procedure, shortened: as §1

[6] = tested on: HIV-1 variant V179D; experiment: as above; assay type: cell-based; details: isolate V179D
Procedure, shortened: as §1

[7] = tested on: HIV-1 variant V106A; experiment: as above; assay type: cell-based; details: isolate V106A
Procedure, shortened: as §1

[8] = tested on: HIV-1 variant K101E; experiment: as above; assay type: cell-based
Procedure, shortened: as §1

[9] = tested on: HIV-1 isolate 4xAZT; experiment: as above; assay type: cell-based
Procedure, shortened: as §1

[10] = tested on: HIV-1 isolate 4xAZT/Y181C; experiment: as above; assay type: cell-based
Procedure, shortened: as §1

[11] = tested on: HIV-1 variant Y181C; experiment: as above; assay type: cell-based; details: isolate Y181C
Procedure, shortened: as §1

[12] = tested on: HIV-1 variant V108I; experiment: as above; assay type: cell-based
Procedure, shortened: as §1

[13] = tested on: NL4-3 (WT); experiment: as above; assay type: cell-based, HIV-1
Procedure, shortened: as §1

[14] = tested on: HIV-1 isolate 4xAZT/L100I; experiment: as above; assay type: cell-based
Description: The various HIV isolates tested in the Figures are those corresponding to wild-type virus (NL4-3) and the other strains listed by their RT mutations. The three 4xAZT isolates included in the Figures represent AZT drug-resistant variants. […]
Briefly, in this method cells (e.g., the CEM-SS cell line, available from the NIAID AIDS Research and Reference Program [ARRRP]) were seeded at a density of 5 x 10^3 cells/well, into the wells of a 96-well microtiter plate. The cells were then infected with HIV virus (either mutant or WT), at a multiplicity of infection (MOI) previously determined to provide complete cell killing by 6 days of culture post-infection (e.g., MOI of 0.01-0.05). Each of the HIV isolates was pre-titered to induce equivalent levels of infection based on cell killing or virus production, prior to their use in these assays. A range of test compound concentrations was added to the wells in triplicate (e.g., serial half-log dilutions) to evaluate inhibition of HIV infection. Controls for each assay included drug controls (drug colorimetric control wells), drug cytotoxicity control wells (cells with drug), virus control wells (cells with virus), and cell viability controls (cells only). Positive control drugs (e.g., AZT and ddC) were also run in parallel.
After six days of incubation at 37°C, cell viability was determined spectrophotometrically at 450 nm for each well, using the metabolic reduction of XTT to a soluble colored formazan. (See, Gartner and Popovic, "Virus Isolation and Production, in Aldovini and Walker (eds.), Techniques in HIV Research, Stockton Press, NY, pp. […] [1991]; and Nara and Fischinger, "Quantitative Infectivity Assay for HIV-1 and HIV-2," Nature 332:469-470 [1988]).
The in vitro therapeutic index (TI50) was defined as the fold-difference between the EC50 and IC50.

[15] = target: T1, HIV-1 WT RT (Human immunodeficiency virus type 1 group M subtype B, UniProt P03366); details: reported by Pauwels et al. (TIBO) and Buckheit et al. (thiazolobenzimidazole); read-out: IC50 for rC:dG; cited from earlier work
T1 construct: purified RT protein (0.015 mg/mL) was incubated in a 100 µL reaction mixture

[16] = Human immunodeficiency virus 1, MT4, Table 4
[17] = Human immunodeficiency virus 1, MT4, Table 9
[18] = Human immunodeficiency virus 1, MT4, Table 10 (values in µM)

CC1Cn2c(=O)[nH]c3cccc(c32)CN1 (stereo not drawn) [TIBO, 4,5,6,7-tetrahydro-5-methylimidazo[4,5,1-jk][1,4]benzodiazepin-2(1H)-one, reference compound]
EC50 [1, 16]: > 17.4 µM | EC50 [1, 17]: > 20 µM | EC50 [1, 18]: > 17.4 µM | EC50 [2, 16]: 17.4 µM | EC50 [2, 17]: > 10 µM | EC50 [2, 18]: 17.4 µM | EC50 [3, 16]: 17.4 µM | EC50 [3, 17]: > 10 µM | EC50 [3, 18]: 17.4 µM | EC50 ([4]; Human immunodeficiency virus 1, MT4, Table 4, isolate L74V): 200 nM | EC50 ([4]; Human immunodeficiency virus 1, MT4, Table 9, isolate 1.74 V): 200 nM | EC50 [5, 16]: 11 µM | EC50 [5, 17]: 11 µM | EC50 [6, 16]: 6.2 µM | EC50 [6, 17]: 6.2 µM | EC50 [7, 16]: 12.5 µM | EC50 [7, 17]: > 10 µM | EC50 ([8]; Human immunodeficiency virus 1, MT4, Table 4, isolate K101E): 17.4 µM | EC50 ([8]; Human immunodeficiency virus 1, MT4, Table 9, isolate KIOIE): > 10 µM | EC50 ([8]; Human immunodeficiency virus 1, MT4, Table 10 (values in µM), isolate K101E): 17.4 µM | EC50 ([9]; Human immunodeficiency virus 1, MT4, Table 4, isolate 4xAZT): 300 nM | EC50 ([9]; Human immunodeficiency virus 1, MT4, Table 9, isolate 4XAZT): 300 nM | EC50 ([10]; Human immunodeficiency virus 1, MT4, Table 4, isolate 4xAZT/Y181C): 2000 nM | EC50 ([10]; Human immunodeficiency virus 1, MT4, Table 9, isolate 4XAZT /Y181C): 2000 nM | EC50 [11, 16]: 4.2 µM | EC50 [11, 17]: 4.2 µM | EC50 [11, 18]: 4.2 µM | EC50 ([12]; Human immunodeficiency virus 1, MT4, Table 4, isolate V108I): 2.4 µM | EC50 ([12]; Human immunodeficiency virus 1, MT4, Table 9, isolate V1081): 2.4 µM | EC50 ([12]; Human immunodeficiency virus 1, MT4, Table 10 (values in µM), isolate V108l): 2.4 µM | EC50 ([13]; Human immunodeficiency virus 1, NL43, MT4, Table 4, isolate NL4-3 (WT)): 0.3 µM | EC50 ([13]; Human immunodeficiency virus 1, NL43, MT4, Table 9, isolate NL4.3): 0.3 µM | EC50 ([13]; Human immunodeficiency virus 1, NL43, MT4, Table 10 (values in µM), isolate NL4-3 (WT)): 0.3 µM | EC50 ([14]; Human immunodeficiency virus 1, MT4, Table 4, isolate 4xAZT/L.1001): > 17.4 µM | EC50 ([14]; Human immunodeficiency virus 1, MT4, Table 9, isolate 4XAZT /L1001): > 20 µM | IC50 [15]: 60 nM

From EP1210336B1, “SUBSTITUTED BENZIMIDAZOLES AS NON-NUCLEOSIDE INHIBITORS OF REVERSE TRANSCRIPTASE” (THE UNITED STATES OF AMERICA, as represented by the …, priority 1999, dated 2001)
